Values belong to the compound of their own block, whether it stands above or below them. The source made the active and inactive calls. The calls are words filed in the database; no cut-off is given here.
Tests used:
P2Y purinoceptor 6 [1] = molecular target: T1, P2Y purinoceptor 6 (Homo sapiens, UniProt Q15077); assay: Antagonist activity at human P2Y6R expressed in HEK293 cells assessed as inhibition of UDP-induced IP3 production preincubated for 0.5 hrs followed by UDP stimulation and measured after 12 hrs by ELISA analysis; assay type: functional, cell-based
T1 sequence (Q15077 whole entry): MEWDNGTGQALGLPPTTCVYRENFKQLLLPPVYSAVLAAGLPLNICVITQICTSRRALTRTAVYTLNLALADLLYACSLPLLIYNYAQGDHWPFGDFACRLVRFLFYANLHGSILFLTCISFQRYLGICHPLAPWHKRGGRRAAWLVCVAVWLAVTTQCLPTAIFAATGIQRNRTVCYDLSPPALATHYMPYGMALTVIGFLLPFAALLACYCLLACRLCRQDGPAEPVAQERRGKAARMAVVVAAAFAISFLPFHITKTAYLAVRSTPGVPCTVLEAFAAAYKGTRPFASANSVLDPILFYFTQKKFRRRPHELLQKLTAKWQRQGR

P2Y purinoceptor 6 [2] = molecular target: T1, P2Y purinoceptor 6; assay: Antagonist activity at P2Y6R (unknown origin)
Mus musculus [3] = assay: Anti-inflammatory activity against DSS-induced acute ulcerative colitis intrarectal dosed C57BL/6J mouse model assessed as reduction in inflammatory infiltration administered daily from 1 to 7 days by H and E staining based microscopic analysis; assay type: functional, organism-based; settings: route rec, time 1-7 day
P2Y purinoceptor 6 [4] = molecular target: T1, P2Y purinoceptor 6; assay: Binding affinity to human recombinant P2Y6R assessed as dissociation constant by grating-coupled interferometry analysis
HT-29 = assay: Cytotoxicity against human HT-29 cells assessed as inhibition of cell growth at below 10 uM incubated for 12 to 24 hrs by CCK-8 assay; assay type: functional, cell-based; settings: time 12-24 hrs
A549 = assay: Cytotoxicity against human A549 cells assessed as inhibition of cell growth at below 10 uM incubated for 12 hrs by CCK-8 assay; assay type: functional, cell-based
[5] = AUC (0 to t) in Sprague-Dawley rat at 2 mg/kg, iv measured at 3 to 480 mins by LC-MS/MS analysis; assay type: ADME, organism-based; parameters: dose 2 mg/kg, time 3-480 min, route iv; settings: in vivo
[6] = Cmax in Sprague-Dawley rat at 2 mg/kg, iv measured at 3 to 480 mins by LC-MS/MS analysis; assay type: ADME, organism-based; parameters: time upper 480 min, time lower 3 min, dose 2 mg/kg, route iv; settings: in vivo
[7] = Half life in Sprague-Dawley rat at 2 mg/kg, iv measured at 3 to 480 mins by LC-MS/MS analysis; assay type: ADME, organism-based; settings: in vivo, time 3-480 min
[8] = Clearance in Sprague-Dawley rat at 2 mg/kg, iv measured at 3 to 480 mins by LC-MS/MS analysis; assay type: ADME, organism-based; settings: in vivo, time 3-480 min
[9] = MRT in Sprague-Dawley rat at 2 mg/kg, iv measured at 3 to 480 mins by LC-MS/MS analysis; assay type: ADME, organism-based; settings: in vivo, time 3-480 min
[10] = Volume of distribution in Sprague-Dawley rat at 2 mg/kg, iv measured at 3 to 480 mins by LC-MS/MS analysis; assay type: ADME, organism-based; settings: in vivo, time 3-480 min
[11] = AUC (0 to t) in Sprague-Dawley rat at 20 mg/kg, po measured at 10 to 720 mins by LC-MS/MS analysis; assay type: ADME, organism-based; parameters: time upper 720 min, time lower 10 min, dose 20 mg/kg, route po; settings: in vivo
[12] = Cmax in Sprague-Dawley rat at 20 mg/kg, po measured at 10 to 720 mins by LC-MS/MS analysis; assay type: ADME, organism-based; parameters: time upper 720 min, dose 20 mg/kg, time lower 10 min, route po; settings: in vivo
[13] = Half life in Sprague-Dawley rat at 20 mg/kg, po measured at 10 to 720 mins by LC-MS/MS analysis; assay type: ADME, organism-based; settings: in vivo, time 10-720 min
[14] = Tmax in Sprague-Dawley rat at 20 mg/kg, po measured at 10 to 720 mins by LC-MS/MS analysis; assay type: ADME, organism-based; settings: in vivo, time 10-720 min
[15] = Oral bioavailability in Sprague-Dawley rat at 20 mg/kg measured at 10 to 720 mins by LC-MS/MS analysis; assay type: ADME, organism-based; settings: in vivo, time 10-720 min
Mus musculus [16] = assay: Anti-inflammatory activity against DSS-induced acute ulcerative colitis intrarectal dosed C57BL/6J mouse model assessed as decrease in spleen index administered daily from 1 to 7 days; assay type: functional, organism-based; settings: route rec, time 1-7 day
Mus musculus [17] = assay: Anti-inflammatory activity against DSS-induced acute ulcerative colitis intrarectal dosed C57BL/6J mouse model assessed as […] length administered daily from 1 to 7 days; assay type: functional, organism-based; settings: route rec, time 1-7 day
Mus musculus [18] = assay: Anti-inflammatory activity against DSS-induced acute ulcerative colitis intrarectal dosed C57BL/6J mouse model assessed as decrease in crypt necrosis administered daily from 1 to 7 days by H and E staining based microscopic analysis; assay type: functional, organism-based; settings: route rec, time 1-7 day
Mus musculus [19] = assay: Anti-inflammatory activity against DSS-induced acute ulcerative colitis intrarectal dosed C57BL/6J mouse model assessed as decrease in goblet cells administered daily from 1 to 7 days by H and E staining based microscopic analysis; assay type: functional, organism-based; settings: route rec, time 1-7 day
Mus musculus [20] = assay: Anti-inflammatory activity against DSS-induced acute ulcerative colitis intrarectal dosed C57BL/6J mouse model assessed as decrease in mucosal damage administered daily from 1 to 7 days by H and E staining based microscopic analysis; assay type: functional, organism-based; settings: route rec, time 1-7 day
Mus musculus [21] = assay: Anti-inflammatory activity against DSS-induced acute ulcerative colitis intrarectal dosed C57BL/6J mouse model assessed as […] Occludin expression at high dose measured after 8 hrs by Western blot analysis; assay type: functional, organism-based; settings: route rec
Mus musculus [22] = assay: Anti-inflammatory activity against DSS-induced acute ulcerative colitis intrarectal dosed C57BL/6J mouse model assessed as […] ZO-1 expression at high dose measured after 8 hrs by Western blot analysis; assay type: functional, organism-based; settings: route rec
Mus musculus [23] = assay: Anti-inflammatory activity against DSS-induced acute ulcerative colitis intrarectal dosed C57BL/6J mouse model assessed as […] claudin-1 expression at high dose measured after 8 hrs by Western blot analysis; assay type: functional, organism-based; settings: route rec
Mus musculus [24] = assay: Inhibition of NLRP3 inflammasome activation in DSS-induced acute ulcerative colitis intrarectal dosed C57BL/6J mouse model assessed as decrease in colon NLRP3 expression measured after 8 hrs by Western blot analysis; assay type: functional, organism-based; settings: route rec
Mus musculus [25] = assay: Inhibition of NLRP3 inflammasome activation in DSS-induced acute ulcerative colitis intrarectal dosed C57BL/6J mouse model assessed as decrease in colon ASC expression measured after 8 hrs by Western blot analysis; assay type: functional, organism-based; settings: route rec
Mus musculus [26] = assay: Inhibition of NLRP3 inflammasome activation in DSS-induced acute ulcerative colitis intrarectal dosed C57BL/6J mouse model assessed as decrease in colon caspase-1 expression measured after 8 hrs by Western blot analysis; assay type: functional, organism-based; settings: route rec
Mus musculus [27] = assay: Anti-inflammatory activity against LPS-induced acute lung injury C57BL/6J mouse model assessed as reduction in pulmonary edema administered IT(Intratracheal) pretreated with LPS followed by compound addition and measured after 12 hrs; assay type: functional, organism-based; settings: dose 1-5 mg/kg
Mus musculus [28] = assay: (§1) Anti-inflammatory activity against LPS-induced acute lung injury C57BL/6J mouse model assessed as reduction in inflammatory infiltration in BALF administered IT(Intratracheal) pretreated with LPS followed by compound addition and measured after 12 hrs; assay type: functional, organism-based; settings: dose 1-5 mg/kg
Mus musculus [29] = assay: as §1, with “lung at 1 to 5 mg/kg,” for “BALF administered”, “hrs by H and E staining based microscopic analysis” for “hrs”; assay type: functional, organism-based; settings: dose 1-5 mg/kg
Mus musculus [30] = assay: Anti-inflammatory activity against LPS-induced acute lung injury C57BL/6J mouse model assessed as restoration of lung structure at 1 to 5 mg/kg, IT(Intratracheal) pretreated with LPS followed by compound addition and measured after 12 hrs by H and E staining based microscopic analysis; assay type: functional, organism-based; settings: dose 1-5 mg/kg
Mus musculus [31] = assay: Anti-inflammatory activity against LPS-induced acute lung injury C57BL/6J mouse model assessed as decrease in lung TNF-alpha mRNA expression level 1 to 5 mg/kg, IT(Intratracheal) pretreated with LPS followed by compound addition and measured after 12 hrs RT-PCR analysis; assay type: functional, organism-based; settings: dose 1-5 mg/kg
Mus musculus [32] = assay: Anti-inflammatory activity against LPS-induced acute lung injury C57BL/6J mouse model assessed as decrease in lung IL-1beta mRNA expression level 1 to 5 mg/kg, IT(Intratracheal) pretreated with LPS followed by compound addition and measured after 12 hrs RT-PCR analysis; assay type: functional, organism-based; settings: dose 1-5 mg/kg
Mus musculus [33] = assay: Anti-inflammatory activity against LPS-induced acute lung injury C57BL/6J mouse model assessed as decrease in TNF-alpha secretion in BALF 1 to 5 mg/kg, IT(Intratracheal) pretreated with LPS followed by compound addition and measured after 12 hrs ELISA analysis; assay type: functional, organism-based; settings: dose 1-5 mg/kg
Mus musculus [34] = assay: Anti-inflammatory activity against LPS-induced acute lung injury C57BL/6J mouse model assessed as decrease in IL-1beta secretion in BALF 1 to 5 mg/kg, IT(Intratracheal) pretreated with LPS followed by compound addition and measured after 12 hrs ELISA analysis; assay type: functional, organism-based; settings: dose 1-5 mg/kg
Mus musculus [35] = assay: Anti-inflammatory activity against LPS-induced acute lung injury C57BL/6J mouse model assessed as reversal of increase in TLR4 expression level 1 to 5 mg/kg, IT(Intratracheal) pretreated with LPS followed by compound addition and measured after 12 hrs by Western blot analysis; assay type: functional, organism-based; settings: dose 1-5 mg/kg
Mus musculus [36] = assay: Anti-inflammatory activity against LPS-induced acute lung injury C57BL/6J mouse model assessed as reversal of increase in MyD88 expression level 1 to 5 mg/kg, IT(Intratracheal) pretreated with LPS followed by compound addition and measured after 12 hrs by Western blot analysis; assay type: functional, organism-based; settings: dose 1-5 mg/kg
Mus musculus [37] = assay: Anti-inflammatory activity against LPS-induced acute lung injury C57BL/6J mouse model assessed as reversal of increase in ERK-phosphorylation level 1 to 5 mg/kg, IT(Intratracheal) pretreated with LPS followed by compound addition and measured after 12 hrs by Western blot analysis; assay type: functional, organism-based; settings: dose 1-5 mg/kg
Mus musculus [38] = assay: Anti-inflammatory activity against LPS-induced acute lung injury C57BL/6J mouse model assessed as reversal of increase in p-38 phosphorylation level 1 to 5 mg/kg, IT(Intratracheal) pretreated with LPS followed by compound addition and measured after 12 hrs by Western blot analysis; assay type: functional, organism-based; settings: dose 1-5 mg/kg
P2Y purinoceptor 6 [39] = molecular target: T1, P2Y purinoceptor 6; assay: Binding affinity to human recombinant P2Y6R expressed in HEK293 cells at 500 uM pretreated for 1 hrs followed by pulldown using streptavidin agarose resin by Western blot analysis; assay type: cell-based; settings: filed as antagonist

Structure (SMILES): CC(C)(C)n1nc(-c2nc3cc(C(F)(F)F)ccc3[nH]2)cc1-c1ccco1
- IC50 (P2Y purinoceptor 6 [1]): 15.2 nM

Structure (SMILES): O=S(=O)(O)c1cc(N=C=S)ccc1/C=C/c1ccc(N=C=S)cc1S(=O)(=O)O
- IC50 (P2Y purinoceptor 6 [2]): 5200 nM

Structure (SMILES): CC(C)(C)n1nc(-c2nc3ccccc3[nH]2)cc1-c1ccco1
- IC50 (P2Y purinoceptor 6 [1]): 159 nM

Structure (SMILES): CC(C)(C)n1nc(-c2nc3cc(Cl)ccc3[nH]2)cc1-c1ccccc1
- IC50 (P2Y purinoceptor 6 [1]): 216 nM

Structure (SMILES): CC(C)(C)n1nc(-c2nc3cc(Cl)ccc3[nH]2)cc1-c1ccco1
- Activity (Mus musculus [3]): Active
- IC50 (P2Y purinoceptor 6 [1]): 5.91 nM
- Kd (P2Y purinoceptor 6 [4]): 3470 nM
- inhibition (HT-29): inactive
- inhibition (A549): inactive
- AUC(0-t) [5]: 261 ng·h/mL
- Cmax [6]: 1050 ng/mL
- half-life [7]: 1.81 h
- clearance [8]: 130 mL/min/kg
- MRT [9]: 0.575 h
- Vd [10]: 20.1 L/kg
- AUC(0-t) [11]: 415 ng·h/mL
- Cmax [12]: 53.7 ng/mL
- half-life [13]: 6.46 h
- Tmax [14]: 2 h
- bioavailability [15]: 15.9%
- Activity (Mus musculus [16]): Dose-Dependent Effect
- Activity (Mus musculus [17]): Dose-Dependent Effect
- Activity (Mus musculus [18]): Active
- Activity (Mus musculus [19]): Active
- Activity (Mus musculus [20]): Active
- Activity (Mus musculus [21]): Active
- Activity (Mus musculus [22]): Active
- Activity (Mus musculus [23]): Active
- inhibition (Mus musculus [24]): Active
- inhibition (Mus musculus [25]): Active
- inhibition (Mus musculus [26]): Active
- Activity (Mus musculus [27]): Dose-Dependent Effect
- Activity (Mus musculus [28]): Dose-Dependent Effect
- Activity (Mus musculus [29]): Active
- Activity (Mus musculus [30]): Active
- Activity (Mus musculus [31]): Active
- Activity (Mus musculus [32]): Active
- Activity (Mus musculus [33]): Active
- Activity (Mus musculus [34]): Active
- Activity (Mus musculus [35]): Active
- Activity (Mus musculus [36]): Active
- Activity (Mus musculus [37]): Active
- Activity (Mus musculus [38]): Active

Structure (SMILES): CC(C)(C)n1nc(-c2nc3cc(C(=O)NCCOCCOCCOCCNC(=O)CCCC[C@@H]4SC[C@@H]5NC(=O)N[C@@H]54)ccc3[nH]2)cc1-c1ccco1
- Activity (P2Y purinoceptor 6 [39]): Active

Structure (SMILES): CC(C)(C)n1nc(-c2nc3c(Cl)cccc3[nH]2)cc1-c1ccco1
- IC50 (P2Y purinoceptor 6 [1]): 93.5 nM

Next, values leading:

- IC50 (P2Y purinoceptor 6 [1]): 77.8 nM
Structure (SMILES): Cc1ccc2[nH]c(-c3cc(-c4ccccc4)n(C(C)(C)C)n3)nc2c1

- IC50 (P2Y purinoceptor 6 [1]): 202 nM
Structure (SMILES): Cc1ccc2oc(-c3cc(-c4ccco4)n(C(C)(C)C)n3)nc2c1

- IC50 (P2Y purinoceptor 6 [1]): 64.1 nM
Structure (SMILES): CC(C)(C)n1nc(-c2nc3cc(F)ccc3[nH]2)cc1-c1ccco1

- IC50 (P2Y purinoceptor 6 [1]): 94.2 nM
Structure (SMILES): Cc1cccc2oc(-c3cc(-c4ccco4)n(C(C)(C)C)n3)nc12

- IC50 (P2Y purinoceptor 6 [1]): 42.5 nM
Structure (SMILES): Cc1ccc2nc(-c3cc(-c4ccccc4)n(C(C)(C)C)n3)oc2c1

- IC50 (P2Y purinoceptor 6 [1]): 256 nM
Structure (SMILES): Cc1ccc2oc(-c3cc(-c4ccc[nH]4)n(C(C)(C)C)n3)nc2c1
